By IC50 is commonly meant the midpoint of a concentration-inhibition curve.

The values below come from patent US20230167105A1, “BCL-2 PROTEIN INHIBITORS” (Recurium IP Holdings, LLC, priority 2020, published 2023).

The test has as its system MOLT-4 cells. Description: MOLT-4 Cell Proliferation Assay (CellTiter-Glo). Conditions: Homo sapiens, 72 h, read-out: MOLT-4 CTG IC50. In kind it is cell-based. How it is done:
Cell proliferation was measured using the CellTiter-Glo® Luminescent Cell Viability Assay. The assay involved the addition of a single reagent (CellTiter-Glo® Reagent) directly to cells cultured in serum-supplemented medium. MOLT-4 cells (ATCC, CRL-1582) were cultured according to ATCC recommendations and were seeded at 50,000 cells per well.
Each compound evaluated was prepared as a DMSO stock solution (10 mM). Compounds were tested in duplicate on each plate, with a 10-point serial dilution curve (1:3 dilution). The highest compound concentration was 10 μM (final), with a 0.1% final DMSO concentration. Plates were then incubated at 37° C., 5% CO2 for 72 h, cell plates were equilibrated at rt for approximately 30 mins. An equi-volume amount of CellTiter-Glo® Reagent (100 μL) was added to each well. Plates were mixed for 2 mins on an orbital shaker to induce cell lysis and then incubated at rt for 10 mins to stabilize the luminescent signal. Luminescence was recorded using a Envision plate reader according to CellTiter-Glo protocol. IC50 of each compound was calculated using GraphPad Prism by nonlinear regression analysis.
For orientation: Cellular ATP, detected with luciferase, serves as a proxy for viable cell number.

Some results are limits rather than exact numbers.

With `CC1(C)CCC(CN2CCN(c3ccc(C(=O)NS(=O)(=O)c4ccc(N[C@H](CCN5CCN(CCCNc6ccc7c(c6)C(=O)N(C6CCC(=O)NC6=O)C7=O)CC5)CSc5ccccc5)c(S(=O)(=O)C(F)(F)F)c4)cc3)CC2)=C(C23CC(C(F)F)(C2)C3)C1` (stereo partly drawn) [Example 12, 4-[4-[[2-[3-(difluoromethyl)-1-bicyclo[1.1.1]pentanyl]-4,4-dimethyl-cyclohexen-1-yl]methyl]piperazin-1-yl]-N-[4-[[(1R)-3-[4-[3-[[2-(2,6-dioxo-3-piperidyl)-1,3-dioxo-isoindolin-5-yl]amino]propyl]piperazin-1-yl]-1-(phenylsulfanylmethyl)propyl]amino]-3-(trifluoromethylsulfonyl)phenyl]sulfonyl-benzamide], the IC50 was at most 50 nM.
For `CC1(C)CCC(CN2CCN(c3ccc(C(=O)NS(=O)(=O)c4ccc(N[C@H](CCN5CCN(CCCCNc6ccc7c(c6)C(=O)N(C6CCC(=O)NC6=O)C7=O)CC5)CSc5ccccc5)c(S(=O)(=O)C(F)(F)F)c4)cc3)CC2)=C(C23CC(C(F)F)(C2)C3)C1` (stereo partly drawn) [Example 13, 4-[4-[[2-[3-(difluoromethyl)-1-bicyclo[1.1.1]pentanyl]-4,4-dimethyl-cyclohexen-1-yl]methyl]piperazin-1-yl]-N-[4-[[(1R)-3-[4-[4-[[2-(2,6-dioxo-3-piperidyl)-1,3-dioxo-isoindolin-5-yl]amino]butyl]piperazin-1-yl]-1-(phenylsulfanylmethyl)propyl]amino]-3-(trifluoromethylsulfonyl)phenyl]sulfonyl-benzamide], the IC50 is at most 50 nM.
For `CCC12CC(C3=C(CN4CCN(c5ccc(C(=O)NS(=O)(=O)c6ccc(N[C@H](CCN7CCN(C(=O)CCCCCC(=O)N[C@H](C(=O)N8C[C@H](O)C[C@H]8C(=O)N[C@@H](C)c8ccc(-c9scnc9C)cc8)C(C)(C)C)CC7)CSc7ccccc7)c(S(=O)(=O)C(F)(F)F)c6)cc5)CC4)CCC(C)(C)C3)(C1)C2` [Example 14, (2S,4R)-1-((S)-2-(7-(4-((R)-3-((4-(N-(4-(4-((2-(3-ethylbicyclo[1.1.1]pentan-1-yl)-4,4-dimethylcyclohex-1-en-1-yl)methyl)piperazin-1-yl)benzoyl)sulfamoyl)-2-((trifluoromethyl)sulfonyl)phenyl)amino)-4-(phenylthio)butyl)piperazin-1-yl)-7-oxoheptanamido)-3,3-dimethylbutanoyl)-4-hydroxy-N—((S)-1-(4-(4-methylthiazol-5-yl)phenyl)ethyl)pyrrolidine-2-carboxamide] the value was 50 to 150 nM; for `CC1(C)CCC(CN2CCN(c3ccc(C(=O)NS(=O)(=O)c4ccc(N[C@H](CCN5CCN(CCCCCNc6cccc7c6CN(C6CCC(=O)NC6=O)C7=O)CC5)CSc5ccccc5)c(S(=O)(=O)C(F)(F)F)c4)cc3)CC2)=C(C23CC(C(F)F)(C2)C3)C1` (stereo partly drawn) [Example 15, 4-[4-[[2-[3-(difluoromethyl)-1-bicyclo[1.1.1]pentanyl]-4,4-dimethyl-cyclohexen-1-yl]methyl]piperazin-1-yl]-N-[4-[[(1R)-3-[4-[5-[[2-(2,6-dioxo-3-piperidyl)-1-oxo-isoindolin-4-yl]amino]pentyl]piperazin-1-yl]-1-(phenylsulfanylmethyl)propyl]amino]-3-(trifluoromethylsulfonyl)phenyl]sulfonyl-benzamide], 50 to 150 nM; for `CC1(C)CCC(CN2CCN(c3ccc(C(=O)NS(=O)(=O)c4ccc(N[C@H](CCN5CCN(CCCCc6ccc7c(c6)C(=O)N(C6CCC(=O)NC6=O)C7=O)CC5)CSc5ccccc5)c(S(=O)(=O)C(F)(F)F)c4)cc3)CC2)=C(C23CC(C(F)F)(C2)C3)C1` (stereo partly drawn) [Example 17, 4-(4-((2-(3-(difluoromethyl)bicyclo[1.1.1]pentan-1-yl)-4,4-dimethylcyclohex-1-en-1-yl)methyl)piperazin-1-yl)-N-((4-(((2R)-4-(4-(4-(2-(2,6-dioxopiperidin-3-yl)-1,3-dioxoisoindolin-5-yl)butyl)piperazin-1-yl)-1-(phenylthio)butan-2-yl)amino)-3-((trifluoromethyl)sulfonyl)phenyl)sulfonyl)benzamide], at most 50 nM.
As for `CC1(C)CCC(CN2CCN(c3ccc(C(=O)NS(=O)(=O)c4ccc(N[C@H](CCN5CCN(CCCCc6ccc7c(c6)CN(C6CCC(=O)NC6=O)C7=O)CC5)CSc5ccccc5)c(S(=O)(=O)C(F)(F)F)c4)cc3)CC2)=C(C23CC(C(F)F)(C2)C3)C1` (stereo partly drawn) [Example 18, 4-(4-((2-(3-(difluoromethyl)bicyclo [1.1.1]pentan-1-yl)-4,4-dimethylcyclohex-1-en-1-yl)methyl)piperazin-1-yl)-N-((4-(((2R)-4-(4-(4-(2-(2,6-dioxopiperidin-3-yl)-1-oxoisoindolin-5-yl)butyl)piperazin-1-yl)-1-(phenylthio)butan-2-yl)amino)-3-((trifluoromethyl)sulfonyl)phenyl)sulfonyl)benzamide], the figure is at most 50 nM; as for `CN(CCCNc1cccc2c1C(=O)N(C1CCC(=O)NC1=O)C2=O)CC[C@H](CSc1ccccc1)Nc1ccc(S(=O)(=O)NC(=O)c2ccc(N3CCN(CC4=C(C56CC(C(F)F)(C5)C6)CC(C)(C)CC4)CC3)cc2)cc1S(=O)(=O)C(F)(F)F` (stereo partly drawn) [Example 19, 4-(4-((2-(3-(difluoromethyl)bicyclo[1.1.1]pentan-1-yl)-4,4-dimethylcyclohex-1-en-1-yl)methyl)piperazin-1-yl)-N-((4-(((2R)-4-((3-((2-(2,6-dioxopiperidin-3-yl)-1,3-dioxoisoindolin-4-yl)amino)propyl)(methyl)amino)-1-(phenylthio)butan-2-yl)amino)-3-((trifluoromethyl)sulfonyl)phenyl)sulfonyl)benzamide], 50 to 150 nM; as for `CN(CCCCCNc1cccc2c1C(=O)N(C1CCC(=O)NC1=O)C2=O)CC[C@H](CSc1ccccc1)Nc1ccc(S(=O)(=O)NC(=O)c2ccc(N3CCN(CC4=C(C56CC(C(F)F)(C5)C6)CC(C)(C)CC4)CC3)cc2)cc1S(=O)(=O)C(F)(F)F` (stereo partly drawn) [Example 20, 4-(4-((2-(3-(difluoromethyl)bicycle[1.1.1]pentan-1-yl)-4,4-dimethylcyclohex-1-en-1-yl)methyl)piperazin-1-yl)-N-((4-(((2R)-4-((5-((2-(2,6-dioxopiperidin-3-yl)-1,3-dioxoisoindolin-4-yl)amino)pentyl)(methyl)amino)-1-(phenylthio)butan-2-yl)amino)-3-((trifluoromethyl)sulfonyl)phenyl)sulfonyl)benzamide], at most 50 nM.
For `CN(CCCCCCNc1cccc2c1C(=O)N(C1CCC(=O)NC1=O)C2=O)CC[C@H](CSc1ccccc1)Nc1ccc(S(=O)(=O)NC(=O)c2ccc(N3CCN(CC4=C(C56CC(C(F)F)(C5)C6)CC(C)(C)CC4)CC3)cc2)cc1S(=O)(=O)C(F)(F)F` (stereo partly drawn) [Example 21, 4-(4-((2-(3-(difluoromethyl)bicyclo [1.1.1]pentan-1-yl)-4,4-dimethylcyclohex-1-en-1-yl)methyl)piperazin-1-yl)-N-((4-(((2R)-4-((6-((2-(2,6-dioxopiperidin-3-yl)-1,3-dioxoisoindolin-4-yl)amino)hexyl)(methyl)amino)-1-(phenylthio)butan-2-yl)amino)-3-((trifluoromethyl)sulfonyl)phenyl)sulfonyl)benzamide] the value was 50 to 150 nM.
With `CC1(C)CCC(CN2CCN(c3ccc(C(=O)NS(=O)(=O)c4ccc(N[C@H](CCN5CCN(CCCCCc6cccc7c6C(=O)N(C6CCC(=O)NC6=O)C7=O)CC5)CSc5ccccc5)c(S(=O)(=O)C(F)(F)F)c4)cc3)CC2)=C(C23CC(C(F)F)(C2)C3)C1` (stereo partly drawn) [Example 22, 4-(4-((2-(3-(difluoromethyl)bicyclo[1.1.1]pentan-1-yl)-4,4-dimethylcyclohex-1-en-1-yl)methyl)piperazin-1-yl)-N-((4-(((2R)-4-(4-(5-(2-(2,6-dioxopiperidin-3-yl)-1,3-dioxoisoindolin-4-yl)pentyl)piperazin-1-yl)-1-(phenylthio)butan-2-yl)amino)-3-((trifluoromethyl)sulfonyl)phenyl)sulfonyl)benzamide], the IC50 is at least 150 nM.
`Cc1ncsc1-c1ccc([C@H](C)NC(=O)[C@@H]2C[C@@H](O)CN2C(=O)[C@@H](NC(=O)CCCCCCC(=O)N2CCN(CC[C@H](CSc3ccccc3)Nc3ccc(S(=O)(=O)NC(=O)c4ccc(N5CCN(CC6=C(C78CC(C(F)F)(C7)C8)CC(C)(C)CC6)CC5)cc4)cc3S(=O)(=O)C(F)(F)F)CC2)C(C)(C)C)cc1` [Example 23, (2S,4R)-1-((S)-2-(8-(4-((R)-3-((4-(N-(4-(4-((2-(3-(difluoromethyl)bicyclo[1.1.1]pentan-1-yl)-4,4-dimethylcyclohex-1-en-1-yl)methyl)piperazin-1-yl)benzoyl)sulfamoyl) ((trifluoromethyl)sulfonyl)phenyl)amino)-4-(phenylthio)butyl)piperazin-1-yl)-8-oxooctanamido)-3,3-dimethylbutanoyl)-4-hydroxy-N—((S)-1-(4-(4-methylthiazol-5-yl)phenyl)ethyl)pyrrolidine-2-carboxamide]: the IC50 was in the range of 50 to 150 nM.
With `Cc1ncsc1-c1ccc([C@H](C)NC(=O)[C@@H]2C[C@@H](O)CN2C(=O)[C@@H](NC(=O)CCCCCN2CCN(CC[C@H](CSc3ccccc3)Nc3ccc(S(=O)(=O)NC(=O)c4ccc(N5CCN(CC6=C(C78CC(C)(C7)C8)CC(C)(C)CC6)CC5)cc4)cc3S(=O)(=O)C(F)(F)F)CC2)C(C)(C)C)cc1` [Example 26, (2S,4R)-1-((S)-2-(6-(4-((R)-3-((4-(N-(4-(4-((4,4-dimethyl-2-(3-methylbicyclo[1.1.1]pentan-1-yl)cyclohex-1-en-1-yl)methyl)piperazin-1-yl)benzoyl)sulfamoyl)-2-((trifluoromethyl)sulfonyl)phenyl)amino)-4-(phenylthio)butyl)piperazin-1-yl)hexanamido)-3,3-dimethylbutanoyl)-4-hydroxy-N—((S)-1-(4-(4-methylthiazol-5-yl)phenyl)ethyl)pyrrolidine-2-carboxamide], the IC50 was at least 150 nM.
